Literature values, collected in US20040071803A1, “Process for preparation of anti-diabetic compositions from banyan bark” (priority 2002, published 2004).

Experiments:
[1] = system: alloxan induced diabetic rats; details: single dose of 250 mg/kg or long term 100 mg/Kg/day; mild but not severe diabetes (Cherian et. al. 1992)

## CC1OC(Oc2cc3c(O)cc(O)cc3[o+]c2-c2ccc(O)cc2)C(O)C(O)C1O (stereo not drawn) [pelargonidin 3-0-α-rhamnoside]
[1]
  Antidiabetic effect in alloxan induced diabetic rats: antidiabetic effect

## Leucocyanidin 3-0-β D-galactosyl cellobioside
[1]
  Antidiabetic effect in alloxan induced diabetic rats: antidiabetic effect

## bengalinoside
Alloxan diabetic rabbits; fasting blood glucose (FBG) of 250 mg/dl or above (Augusti 1975)
  Effect on severely diabetic rabbits: did not have any effect
Alloxan diabetic rabbits; normal and mildly diabetic rabbits (Augusti 1975)
  Hypoglycemic activity relative to tolbutamide: half as active as tolbutamide
